In PubChem BioAssay AID1845197 (Molecular Pharmacology Branch, DTP, NCI, 2023):

System: 349418-098-R tumor spheroid viability
Assay: Anticancer human tumor 349418-098-R patient-derived lung adenocarcinoma cell line growth inhibition
Conditions: spheroids with HUVEC and MSC; for IC50: curve of first compound; for viability, T/C: stronger effect = lower value
In short: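 Single agents and combinations were tested on spheroids built from tumor cells plus HUVEC and hMSC, at half-log dilutions starting at or near clinical Cmax, else 10 microM; final DMSO 0.25% (v/v).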

[1] = second compound 1 µM, first compound 0.00949 µM
[2] = second compound 1 µM, first compound 0.03 µM
[3] = second compound 1 µM, first compound 0.0949 µM
[4] = second compound 1 µM, first compound 0.3 µM
[5] = second compound 1 µM, first compound 0.949 µM
[6] = second compound 1 µM, first compound 3 µM
[7] = second compound 3.16 µM, first compound 0.00949 µM
[8] = second compound 3.16 µM, first compound 0.03 µM
[9] = second compound 3.16 µM, first compound 0.0949 µM
[10] = second compound 3.16 µM, first compound 0.3 µM
[11] = second compound 3.16 µM, first compound 0.949 µM
[12] = second compound 3.16 µM, first compound 3 µM
[13] = second compound 10 µM, first compound 0.00949 µM
[14] = second compound 10 µM, first compound 0.03 µM
[15] = second compound 10 µM, first compound 0.0949 µM
[16] = second compound 10 µM, first compound 0.3 µM
[17] = second compound 10 µM, first compound 0.949 µM
[18] = second compound 10 µM, first compound 3 µM
[19] = second compound 31.6 µM, first compound 0.00949 µM
[20] = second compound 31.6 µM, first compound 0.03 µM
[21] = second compound 31.6 µM, first compound 0.0949 µM
[22] = second compound 31.6 µM, first compound 0.3 µM
[23] = second compound 31.6 µM, first compound 0.949 µM
[24] = second compound 31.6 µM, first compound 3 µM
[25] = second compound 100 µM, first compound 0.00949 µM
[26] = second compound 100 µM, first compound 0.03 µM
[27] = second compound 100 µM, first compound 0.0949 µM
[28] = second compound 100 µM, first compound 0.3 µM
[29] = second compound 100 µM, first compound 0.949 µM
[30] = second compound 100 µM, first compound 3 µM
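Note: spheroids exposed to compound for 7 days before measurement.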
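Throughout, for viability, T/C: percent of vehicle control viability with 100% = DMSO-treated spheroids.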

Row | SMILES | IC50 (second compound 1 µM) [nM] | IC50 (second compound 3.16 µM) [nM] | IC50 (second compound 10 µM) [nM] | IC50 (second compound 31.6 µM) [nM] | IC50 (second compound 100 µM) [nM] | viability, T/C [1] [%] | viability, T/C [2] [%] | viability, T/C [3] [%] | viability, T/C [4] [%] | viability, T/C [5] [%] | viability, T/C [6] [%] | viability, T/C [7] [%] | viability, T/C [8] [%] | viability, T/C [9] [%] | viability, T/C [10] [%] | viability, T/C [11] [%] | viability, T/C [12] [%] | viability, T/C [13] [%] | viability, T/C [14] [%] | viability, T/C [15] [%] | further results
1 | CNCc1ccc(-c2cc(-c3nc(-c4ccc(S(=O)(=O)C(C)C)cc4)cnc3N)on2)cc1 + Cn1nnc2c(C(N)=O)ncn2c1=O | 275 | 382 | 401 | 260 | 214 | 103 | 100 | 99.6 | 45.4 | 10.3 | 1.84 | 108 | 101 | 102 | 61.2 | 7.59 | 1.85 | 104 | 103 | 97.9 | viability, T/C [16]: 64.5%; viability, T/C [17]: 7.44%; viability, T/C [18]: 1.34%; viability, T/C [19]: 104%; viability, T/C [20]: 102%; viability, T/C [21]: 99.9%; viability, T/C [22]: 42.7%; viability, T/C [23]: 5.84%; viability, T/C [24]: 0.96%; viability, T/C [25]: 104%; viability, T/C [26]: 106%; viability, T/C [27]: 105%; viability, T/C [28]: 27.1%; viability, T/C [29]: 4.72%; viability, T/C [30]: 0.67%
2 | Cc1sc2c(c1C)C(c1ccc(Cl)cc1)=NC(CC(=O)Nc1ccc(O)cc1)c1nnc(C)n1-2 (stereo not given) + Cn1nnc2c(C(N)=O)ncn2c1=O | 143 | 133 | 129 | 154 | 129 | 99 | 102 | 67.8 | 16.6 | 1.96 | 0.51 | 99.2 | 105 | 62.7 | 16.5 | 1.3 | 0.49 | 99.2 | 102 | 63.7 | viability, T/C [16]: 10.9%; viability, T/C [17]: 1.25%; viability, T/C [18]: 0.39%; viability, T/C [19]: 103%; viability, T/C [20]: 103%; viability, T/C [21]: 72.1%; viability, T/C [22]: 19.3%; viability, T/C [23]: 1.26%; viability, T/C [24]: 0.43%; viability, T/C [25]: 106%; viability, T/C [26]: 105%; viability, T/C [27]: 64.9%; viability, T/C [28]: 9.26%; viability, T/C [29]: 0.75%; viability, T/C [30]: 0.45%
3 | Cn1ncnc1[C@H]1c2n[nH]c(=O)c3cc(F)cc(c23)N[C@@H]1c1ccc(F)cc1 + Cn1nnc2c(C(N)=O)ncn2c1=O | 1580 | 1470 | 1100 | 131 | < 9.49 | 99 | 99.2 | 94.3 | 99.9 | 82.9 | 8.45 | 100 | 99.9 | 97.5 | 95.4 | 77.1 | 6.31 | 104 | 98 | 95.1 | viability, T/C [16]: 94%; viability, T/C [17]: 56.2%; viability, T/C [18]: 6.77%; viability, T/C [19]: 97.7%; viability, T/C [20]: 77.7%; viability, T/C [21]: 56.5%; viability, T/C [22]: 35.6%; viability, T/C [23]: 12.3%; viability, T/C [24]: 3.26%; viability, T/C [25]: 16.3%; viability, T/C [26]: 12.1%; viability, T/C [27]: 9.69%; viability, T/C [28]: 7.58%; viability, T/C [29]: 6.59%; viability, T/C [30]: 1.86%
